Experimental data from ChEMBL document CHEMBL3608204, “neo-Clerodane Diterpenoids from Scutellaria barbata and Their Inhibitory Effects on LPS-Induced Nitric Oxide Production” (J Nat Prod, 2015).

Columns and labels:
RAW264.7 [1] = experiment: Inhibition of LPS-induced nitric oxide production in mouse RAW264.7 cells after 24 hrs by Griess reaction; format: functional, cell-based; settings: RAW264.7, 24 h
RAW264.7 [2] = experiment: Cytotoxicity against mouse RAW264.7 cells assessed as cell viability at IC50 by colorimetric assay; format: cell-based

| SMILES | IC50 (RAW264.7 [1]) | Activity (RAW264.7 [2]) |
| --- | --- | --- |
| CC1=CC[C@@H](OC(=O)c2ccccc2)C2[C@@]1(C)[C@@H](OC(=O)c1cccnc1)[C@H](O)[C@]1(C)O[C@@]3(CC[C@]21C)COC(=O)C3 (stereo not given in full) | 34.2 µM | Non-toxic |
| CC1=CC[C@@H](OC(=O)c2ccccc2)C2[C@@]1(C)[C@@H](OC(=O)c1cccnc1)[C@H](OC(=O)c1ccccc1)[C@]1(C)O[C@]3(CC[C@]21C)COC(=O)C3 (stereo not given in full) | > 50 µM | Non-toxic |
| CC(=O)O[C@H]1[C@H](OC(C)=O)[C@]2(C)O[C@]3(CC[C@]2(C)C2[C@H](OC(=O)c4ccccc4)CC=C(C)[C@@]21C)COC(=O)C3 (stereo not given in full) | > 50 µM | Non-toxic |
| C=C1CCCC2[C@@]1(C)[C@@H](OC(=O)c1ccccc1)[C@H](O)[C@]1(C)O[C@]3(COC(=O)C3)C[C@H](OC(=O)c3ccccc3)[C@]21C (stereo not given in full) | 20.6 µM | Non-toxic |
| CC1=CCCC2[C@@]1(C)[C@@H](OC(=O)c1cccnc1)[C@H](O)[C@]1(C)O[C@]3(COC(=O)C3)C[C@H](OC(=O)c3cccnc3)[C@]21C (stereo not given in full) | > 50 µM | Non-toxic |
| CC1=CCCC2[C@@]1(C)[C@@H](OC(=O)c1cccnc1)[C@H](OC(=O)c1ccccc1)[C@](C)(O)[C@]2(C)/C=C/C1=CC(=O)OC1 (stereo not given in full) | 22.8 µM | Non-toxic |
| CC1=CCCC2[C@@]1(C)[C@@H](OC(=O)c1cccnc1)[C@H](OC(=O)c1cccnc1)[C@](C)(O)[C@]2(C)/C=C/C1=CC(=O)OC1 (stereo not given in full) | 26.3 µM | Non-toxic |
| CC1=CCCC2[C@@]1(C)[C@@H](OC(=O)c1ccccc1)[C@H](OC(=O)c1cccnc1)[C@](C)(O)[C@]2(C)/C=C/C1=CC(=O)OC1 (stereo not given in full) | 27.7 µM | Non-toxic |
| CC(=O)O[C@@H](CC1=C(O)C(=O)OC1)[C@]1(C)C2CCC=C(C)[C@]2(C)[C@@H](OC(=O)c2cccnc2)[C@H](O)[C@]1(C)O (stereo not given in full) | > 50 µM | Non-toxic |
| CC(=O)O[C@@H](CC1=C(O)C(=O)OC1)[C@]1(C)C2CCC=C(C)[C@]2(C)[C@@H](OC(=O)c2cccnc2)[C@H](OC(=O)c2cccnc2)[C@]1(C)O (stereo not given in full) | > 50 µM | Non-toxic |
| CC(=O)O[C@@H](CC1=C(O)C(=O)OC1)[C@]1(C)C2CCC=C(C)[C@]2(C)[C@@H](OC(=O)c2cccnc2)[C@H](OC(=O)c2ccccc2)[C@]1(C)O (stereo not given in full) | > 50 µM | Non-toxic |
| CC1=CC[C@@H](OC(=O)c2cccnc2)C2[C@@]1(C)[C@@H](OC(=O)c1cccnc1)[C@H](OC(=O)c1ccccc1)[C@]1(C)O[C@]3(CC[C@]21C)COC(=O)C3 (stereo not given in full) | 21.5 µM | Non-toxic |
| CC1=CC[C@@H](OC(=O)c2ccccc2)C2[C@@]1(C)[C@@H](OC(=O)c1cccnc1)[C@H](OC(=O)c1cccnc1)[C@]1(C)O[C@]3(CC[C@]21C)COC(=O)C3 (stereo not given in full) | 20.2 µM | Non-toxic |
| CC1=CC[C@@H](OC(=O)c2cccnc2)C2[C@@]1(C)[C@@H](OC(=O)c1cccnc1)C[C@]1(C)O[C@@]3(CC[C@]21C)COC(=O)C3 (stereo not given in full) | 35.6 µM | Non-toxic |
| C[C@@]12[C@@H](OC(=O)c3cccnc3)[C@H](OC(=O)c3ccccc3)[C@](C)(O)[C@](C)(/C=C/C3=CC(=O)OC3)[C@H]1CC=C[C@]2(C)O [SCUTEBARBATINE F] | > 50 µM | Non-toxic |
